Data from PMC6320955, “Self-Dissolving Microneedle Arrays for Transdermal Absorption Enhancement of Human Parathyroid Hormone (1-34)” (Pharmaceutics, 2018).

Key:
[1] = test system: rats with ovariectomy (OVX)-induced osteoporosis; experiment: Therapeutic potential in post-menopausal rat model of osteoporosis (OVX); assay type: in vivo, female Sprague-Dawley rats; conditions: subcutaneous injection of PTH 20 µg/rat, hematoxylin and eosin
Protocol: The post-menopausal rat model of osteoporosis was established by performing ovariectomies (OVX) of female Sprague-Dawley rats. Four weeks following OVX, PTH-loaded MNs (20 µg/rat) were applied to the rats twice a week, for a period of 4 weeks. Separately, PTH (20 µg/rat) was subcutaneously injected into the rats. Eight weeks after OVX, rats were euthanized, and the tibias were excised and fixed in 4% paraformaldehyde in PBS. The fixed tibias were then embedded in paraffin and sectioned by microtome. The sections of tibias were subsequently stained with hematoxylin and eosin and then used for histological analysis.

[2] = Storage stability of PTH in MNs fabricated from HA and in PBS solution; assay type: physicochemical; conditions: PTH dissolved in PBS, PTH (1-34) ELISA, mean of three experiments
Protocol: PTH-loaded MNs were packaged into an aluminum sachet purged with nitrogen and stored at −20 °C, 4 °C, or at room temperature (15–20 °C). PTH solution dissolved in PBS was kept at the same temperatures as the control. Following one month of storage, the needles were separated from the back layers of MNs and dissolved in PBS. The actual amounts of PTH present in the needle parts of the MNs were measured using the PTH (1-34) ELISA kit (PTH (1-34), Human, EIA Kit, High Sensitivity, Peninsula Laboratories International, Inc. San Carlos, CA, USA).

[3] = In vivo transdermal delivery of PTH: plasma pharmacokinetics; parameters: species or system Wistar rats; conditions: sc, 20 ug/animal, rat, subcutaneous injection of PTH solution, 20 µg/rat, ELISA, mean ± SD of three rats
Protocol: The abdominal skin of Wistar rats was shaved while the animals were placed under pentobarbital anesthesia (52 mg/kg as pentobarbital sodium salt). PTH-loaded MNs (20 µg/rat) were then applied to the abdominal skin of rats. The dosage of PTH in MNs was calculated based on the content of PTH in the needle part of MNs. Separately, PTH solution (20 µg/rat) was subcutaneously injected into the backs of rats. At pre-determined intervals, 0.3 mL of blood was withdrawn from the jugular veins while the animals were placed under pentobarbital anesthesia (52 mg/kg as pentobarbital sodium salt) and collected in tubes containing 0.3 mg of EDTA and 150 KIU of aprotinin. The collected blood was then centrifuged for 15 min at 4000 rpm to obtain plasma. […] The peak PTH plasma concentration (Cmax) and time to reach Cmax (Tmax) were determined directly from the plasma concentration–time profiles. Area under the plasma concentration-time curve (AUC) after transdermal administration or subcutaneous injection was calculated by the trapezoidal formula and extrapolation to infinite time based on monoexponential equation [26].
The PTH in the plasma sample was extracted and purified using SEP-columns. […] Concentrations of PTH were determined using the PTH (1-34) ELISA kit (PTH (1-34), Human, EIA Kit, High Sensitivity, Peninsula Laboratories International, Inc. San Carlos, CA, USA).

Which results are given for `CC[C@H](C)[C@H](NC(=O)[C@H](CCC(=O)O)NC(=O)[C@H](CO)NC(=O)[C@@H](NC(=O)[C@@H](N)CO)C(C)C)C(=O)N[C@@H](CCC(N)=O)C(=O)N[C@@H](CC(C)C)C(=O)N[C@@H](CCSC)C(=O)N[C@@H](Cc1c[nH]cn1)C(=O)N[C@@H](CC(N)=O)C(=O)N[C@@H](CC(C)C)C(=O)NCC(=O)N[C@@H](CCCCN)C(=O)N[C@@H](Cc1c[nH]cn1)C(=O)N[C@@H](CC(C)C)C(=O)N[C@@H](CC(N)=O)C(=O)N[C@@H](CO)C(=O)N[C@@H](CCSC)C(=O)N[C@@H](CCC(=O)O)C(=O)N[C@@H](CCCNC(=N)N)C(=O)N[C@H](C(=O)N[C@@H](CCC(=O)O)C(=O)N[C@@H](Cc1c[nH]c2ccccc12)C(=O)N[C@@H](CC(C)C)C(=O)N[C@@H](CCCNC(=N)N)C(=O)N[C@@H](CCCCN)C(=O)N[C@@H](CCCCN)C(=O)N[C@@H](CC(C)C)C(=O)N[C@@H](CCC(N)=O)C(=O)N[C@@H](CC(=O)O)C(=O)N[C@H](C(=O)N[C@@H](Cc1c[nH]cn1)C(=O)N[C@@H](CC(N)=O)C(=O)N[C@@H](Cc1ccccc1)C(=O)O)C(C)C)C(C)C` [PTH, Human parathyroid hormone (1-34)]?
effect on decrease in bone matrix density (tibia histology) [1]: effectively prevented; initial PTH retained in the solution after storage ([2]; stored one month at 4 °C): ~84%; initial PTH retained in the solution after storage ([2]; stored one month at room temperature (15–20 °C)): ~13%; initial PTH retained in the solution after storage ([2]; stored one month at −20 °C): approximately 98%; Cmax ([3]; Wistar): 15.1 ± 4.6 ng/mL; Tmax ([3]; in vivo): 30 min
